The values that follow are results of earlier work, collected in patent publication US4384994A, “Renin inhibitory peptides” (Merck & Co., Inc., priority 1981, dated 1983).

The subject of series [1] is hog renin. The settings on record: nephrectomized rats, after injection of hog renin; Gross et al. 1971.
The target of series [2] is pepsin (Homo sapiens, UniProt P0DJD8). Conditions: Umezawa et al. 1970.
Chain of pepsin (P0DJD8 63-388): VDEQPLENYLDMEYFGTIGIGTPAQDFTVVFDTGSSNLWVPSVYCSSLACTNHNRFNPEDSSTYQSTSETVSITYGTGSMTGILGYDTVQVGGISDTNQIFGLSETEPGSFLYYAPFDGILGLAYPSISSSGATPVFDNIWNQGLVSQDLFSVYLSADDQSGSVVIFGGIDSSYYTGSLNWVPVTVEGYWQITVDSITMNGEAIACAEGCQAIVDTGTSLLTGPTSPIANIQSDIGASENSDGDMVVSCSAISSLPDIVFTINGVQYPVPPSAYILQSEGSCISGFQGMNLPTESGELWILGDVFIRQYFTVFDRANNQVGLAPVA

pepstatin: the “blood pressure in vivo” value in series [1] was “reduce blood pressure”. For the same substance, in series [2], the inhibition of pepsin result is reported as “inhibitor”.
